Entries after “also recorded” stand apart in the source; their conditions may differ.
Columns and labels:
[1] = test system: mice in which an autistic phenotype was induced by valproic acid (VPA); test: VPA injection model of autism: overall activity in the study; type: in vivo, C57/BL6 mice
Description: (§1) To evaluate the synergy of a combination PEA-um and melatonin, experimental tests were carried out by oral administration (gastric tube) of a mixture of um-PEA and melatonin (approximately 10:1 ratio) at a dose of 10 mg/kg for two weeks in mice in which an autistic phenotype was induced by a single injection of valproic acid in the form of sodium valproate (VPA).
(§2) Healthy male C57/BL6 mice fed ad libitum and housed in cages with controlled sleep/wake cycles were used in the first experimentation. […]
(§3) The animals underwent the following behavioral tests: • The social interaction test, also known as a 3-chamber social test (FIGS. 2A, 2B and FIGS. 15A, 15B) to evaluate i) the interaction time of the animals with an unknown mouse and ii) the sociability index (ratio between the time spent by the mouse exploring the area without and with the new companion). […] In this phase of the test, parameters such as the time spent by the animal exploring i) the chambers and ii) the unfamiliar mouse were detected. • The Novel Object Recognition Test or NOR test (FIGS. 3A, 3B) to examine cognition and recognition memory by calculating the time spent by the animal exploring new objects with respect to familiar ones. […]

[2] = test system: mice in which an autistic phenotype was induced by valproic acid (VPA); test: Thermal Nociception test (hot plate) in VPA mice; type: in vivo, C57/BL6 mice; details: melatonin at 1 mg/kg per os daily for 14 days, the worsening is significant, FIG. 6
Description: as §1, §2, §3

BTBR T+tf/J (BTBR) mice [3] = test: Social interaction test and 3-chamber social interaction test in BTBR mice; type: in vivo; details: melatonin 0.1 mg/kg orally for 10 days
Description: (§4) Furthermore, experimental tests were carried out to determine the synergy of the PEA-Melatonin-DHA combination administered orally to genetically modified BTBR T+tf/J (BTBR) mice, an animal model of neurobehavioral disorders of the ASD type.
(§5) To determine the synergy of a PEA-um, melatonin and DHA combination, a second experimentation was performed, using a different animal model useful for the study of neurobehavioral disorders, and more precisely BTBR mice. […]
(§6) The animals underwent the following behavioral tests: • The social interaction test, also known as a 3-chamber social test (FIGS. 2A, 2B and FIGS. 15A, 15B) to evaluate i) the interaction time of the animals with an unknown mouse and ii) the sociability index (ratio between the time spent by the mouse exploring the area without and with the new companion). […] In this phase of the test, parameters such as the time spent by the animal exploring i) the chambers and ii) the unfamiliar mouse were detected. • The Novel Object Recognition Test or NOR test (FIGS. 3A, 3B) to examine cognition and recognition memory by calculating the time spent by the animal exploring new objects with respect to familiar ones. […] The exploration time was counted from the moment the mice directly looked at and smelled the object at a distance of less than 2 cm. […]

BTBR T+tf/J (BTBR) mice [4] = test: Self Grooming test in BTBR mice; type: in vivo; details: melatonin 0.1 mg/kg orally for 10 days, FIG. 15D
Description: as §4, §5, §6

BTBR T+tf/J (BTBR) mice [5] = test: Marble Burying test in BTBR mice; type: in vivo; details: melatonin 0.1 mg/kg orally for 10 days, FIG. 15C
Description: as §4, §5, §6

autistic children = details: um-PEA 600 mg/day, 3-month treatment; cited from earlier work
[6] = test system: mice with a simil-autistic phenotype; details: cited from earlier work

SMILES	activity in the assessments of the VPA study (social interaction, sociability index, NOR, stereotypies, EPM) ([1]; melatonin at 1 mg/kg per os daily for 14 days, 1 mg/kg)	activity in the present study (VPA model) ([1]; melatonin at a dose of 10 mg/kg per os daily for 14 days)	VPA-induced pain insensitivity (hot plate) [2]	social interaction behavioral test (BTBR T+tf/J (BTBR) mice [3]; FIG. 15A)	3-chamber social interaction test: side of the area where time is spent (BTBR T+tf/J (BTBR) mice [3]; FIG. 15B)	stereotyped repetitive behaviors (Self Grooming) (BTBR T+tf/J (BTBR) mice [4])	stereotyped repetitive behaviors (Marble Burying) (BTBR T+tf/J (BTBR) mice [5])	adverse effects (autistic children)	aggressiveness, cognitive and behavioral skills, and communication (autistic children)	altered behavioral status [6]	expression of the pro-inflammatory hippocampal and serum cytokines IL-6, IL-1β and TNF-α [6]
COc1ccc2[nH]cc(CCNC(C)=O)c2c1 [melatonin, N-acetyl-5-methoxy tryptamine]	inactive; also recorded: never shown to be active	active	worsened	no improvement	continuing to spend their time in the empty side	no improvement	no improvement				
CCCCCCCCCCCCCCCC(=O)NCCO [um-PEA, Ultra-micronized palmitoylethanolamide]								without adverse effects	improves	modulating	reducing

From patent US20230381121A1, “N-PALMITOYLETHANOLAMIDE AND MELATONIN FOR USE IN THE TREATMENT OF AUTISM SPECTRUM DISORDER AND OTHER NEUROBEHAVIORAL DISORDERS SIMILARLY ACCOMPANIED BY RESTLESSNESS, IRRITABILITY, SLEEP DISORDERS, AND POTENTIALLY STEREOTYPIES” (priority 2022, published 2023)
